# Key:
# Experiment in all cases: relative viability (nuclei count vs DMSO), 5 days (fraction); higher = more cells survive
# [1] = compound: CCC1=CN=CN=C1N2CCN(CC2)CC3=NC4=C(N3)C=C(C=C4)C(F)(F)F + COc1cc2c(Oc3ccc(NC(=O)C4(C(=O)Nc5ccc(F)cc5)CC4)cc3F)ccnc2cc1OCCCN1CCOCC1 [Foretinib] (partner 0.25 µM)
# Procedure, shortened: (§1)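 Each reported value is a median over duplicate plates. It expresses relative viability: treated-well nuclei count divided by vehicle-well nuclei count. Lung cancer cell lines in 1536-well plates were dosed by pin tool a day after seeding, alone with one drug or with a fixed anchor-drug dose plus five library-drug doses (not always all listed) in √10 steps, and nuclei were counted after 5 days.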
# [2] = compound: CCC1=CN=CN=C1N2CCN(CC2)CC3=NC4=C(N3)C=C(C=C4)C(F)(F)F + CS(=O)(=O)CCNCc1ccc(-c2ccc3ncnc(Nc4ccc(OCc5cccc(F)c5)c(Cl)c4)c3c2)o1 [Lapatinib] (partner 2 µM)
# Procedure, shortened: as §1
# [3] = compound: CCn1c(-c2nonc2N)nc2cnc(Oc3cccc(NC(=O)c4ccc(OCCN5CCOCC5)cc4)c3)cc21 + Cc1cc(Nc2cc(N3CCN(C)CC3)nc(Sc3ccc(NC(=O)C4CC4)cc3)n2)n[nH]1 [Tozasertib] (partner 0.1 µM)
# Procedure, shortened: as §1
# [4] = compound: CCn1c(-c2nonc2N)nc2cnc(Oc3cccc(NC(=O)c4ccc(OCCN5CCOCC5)cc4)c3)cc21 + Nc1ncn([C@H]2C[C@H](O)[C@@H](CO)O2)c(=O)n1 [Decitabine] (partner 2 µM)
# Procedure, shortened: as §1
Cell Line,relative viability ([1]; first compound 0.04 µM),relative viability ([1]; first compound 0.1265 µM),relative viability ([1]; first compound 0.4 µM),relative viability ([1]; first compound 1.265 µM),relative viability ([1]; first compound 4 µM),relative viability ([2]; first compound 0.04 µM),relative viability ([2]; first compound 0.1265 µM),relative viability ([2]; first compound 0.4 µM),relative viability ([2]; first compound 1.265 µM),relative viability ([2]; first compound 4 µM),relative viability ([3]; first compound 0.04 µM),relative viability ([3]; first compound 0.1265 µM),relative viability ([3]; first compound 0.4 µM),relative viability ([3]; first compound 1.265 µM),relative viability ([3]; first compound 4 µM),relative viability ([4]; first compound 0.04 µM),relative viability ([4]; first compound 0.1265 µM),relative viability ([4]; first compound 0.4 µM),relative viability ([4]; first compound 1.265 µM),relative viability ([4]; first compound 4 µM)
NCI-H1651,0.934,0.704,0.861,0.709,0.667,0.839,0.827,0.818,0.787,0.87,0.556,0.733,0.718,0.528,0.334,0.74,0.728,0.581,0.271,0.488
NCI-H1666,0.88,0.923,0.97,0.882,0.889,0.625,0.579,0.482,0.544,0.616,0.65,0.675,0.582,0.368,0.326,0.796,0.787,0.751,0.653,0.704
NCI-H1734,0.828,0.811,0.874,0.816,0.765,1.03,1.07,1.08,–,1.04,0.223,0.264,0.234,0.179,0.212,0.574,0.504,0.515,0.459,0.393
NCI-H1755,0.895,0.86,0.844,0.743,0.88,1.07,0.93,0.981,0.924,1.1,0.527,0.58,0.534,0.416,0.349,0.732,0.72,0.729,0.719,0.654
NCI-H1793,0.7,0.771,0.568,–,0.669,0.581,0.652,0.534,–,0.635,0.332,0.473,0.341,0.307,0.293,0.36,0.474,0.499,0.457,0.369
NCI-H1915,1.11,1.06,1.04,0.943,0.996,0.927,0.89,0.995,0.957,1.06,0.499,0.457,0.417,0.396,0.406,0.249,0.265,0.275,0.24,0.21
NCI-H1944,1.1,0.844,0.809,0.648,0.694,0.976,0.691,0.767,–,0.875,0.248,0.279,0.273,0.228,0.213,0.416,0.414,0.425,0.442,0.428
NCI-H1975,1,0.945,0.986,0.829,0.803,1.16,0.824,0.851,0.739,0.846,0.661,0.549,0.491,0.121,0.0969,0.311,0.289,0.293,0.228,0.201
NCI-H1993,0.844,0.73,0.668,0.682,0.668,0.777,0.842,0.69,0.8,0.747,0.634,0.705,0.502,0.501,0.455,0.557,0.616,0.652,0.496,0.531
NCI-H2009,1.23,1.25,1.16,1.24,1.21,1.07,1,0.894,0.715,0.808,0.745,0.635,0.53,0.331,0.275,0.292,0.304,0.25,0.216,0.175
NCI-H2023,0.698,0.911,0.849,0.628,0.895,0.716,0.765,0.749,0.527,0.763,0.363,0.334,0.277,0.16,0.136,0.232,0.231,0.216,0.173,0.199
NCI-H2085,0.971,1.13,0.792,0.76,0.959,0.713,0.704,0.797,0.571,0.784,0.961,0.8,0.733,0.633,0.538,0.433,0.581,0.528,0.466,0.472
NCI-H2087,1,1.06,0.916,1.05,0.535,1.07,0.963,1.08,0.914,0.818,0.252,0.243,0.218,0.152,0.142,0.321,0.324,0.285,0.289,0.315
NCI-H2126,1.15,1.26,1.06,0.986,1.17,0.772,0.713,0.708,0.736,0.838,0.898,0.849,0.861,–,0.378,0.629,0.623,0.56,0.636,0.519
NCI-H2170,1.01,0.975,0.94,0.867,1,0.277,0.263,0.267,0.27,0.296,0.743,0.651,0.786,0.553,0.515,0.473,0.494,0.494,0.474,0.431
NCI-H2347,0.8,0.714,0.798,–,0.896,1.06,0.793,0.985,0.828,1.1,0.634,0.637,0.674,0.45,0.395,0.607,0.565,0.624,0.461,0.434
NCI-H2405,1.06,1.02,1.06,–,1.12,1.04,1.17,1.11,–,1.2,0.874,0.794,0.345,0.224,0.24,0.68,0.473,0.327,0.251,0.241
